# Test results: patent US12139488B2, “Pyrido[3,2-d]pyrimidine compounds uses thereof for treating a proliferative disease” (Universite de Montreal, priority 2021, dated 2024)
# System: pERK in HCT-116 cells (KRAS G13D)
# Assay: Phospho-ERK inhibition (AlphaLISA SureFire Ultra p-ERK 1/2), HCT116
# Format: cell-based, human
# Description: All cancer cell lines (A375, A101D, A2058, RKO, HT29 SK-MEL 30, IPC298, HepG2, HCT-116, Lovo, SWV620, SW480, NCI-H358, NCI-H2122, Calu-6, NCIH2087, NCIH1755, NCIH1666 and Mewo) were obtained from ATCC and cultured in RPMI-1640 medium (Gibco) supplemented with 5% heat inactivated fetal bovine serum (FBS, Wisent) at 37° C. under 5% CO2. Cells were maintained in T175 flasks (Greiner). They were passaged by removing the culture medium, washing once in 10 mL of room temperature Phosphate Buffered Saline (PBS; Wisent) and incubating at 37° C. with 2 mL of 0.05% Trypsin (Thermo-Fisher). Trypsin was then inactivated by adding complete growth medium and the cells were then replated in a T175 culture dish at the appropriate dilution. All cell lines were routinely tested for mycoplasma contamination. Tissue type and mutational status of each cell line can be found in Table B.
# AlphaLISA® SureFire® Ultra™ p-ERK 1/2 (Thr202/Tyr204) analysis was conducted on cells plated in 100 μL of complete RPMI-1640 growth medium in 96-well flat-bottomed transparent dishes (Costar) at a density indicated in Table C. Cells were maintained overnight at 37° C. under 5% CO2 before treatment with compounds' dilution series for one hour. The cell density in cells/cm^2 corresponds to cell number divided by the area of one well of a 96-well plate ([…]).
# In a dilution series 100 μL/well of test substance dilution prepared in complete RPMI-1640 growth media was added to the cells. The dilution series is selected so that ten concentrations cover a range from 10 μM to 0.33 nM. If necessary the initial concentration of 10 μM is increased to 100 μM or lowered to 1 μM (as in the case of A375 and H1666 cells, which are generally more sensitive to the compounds) and further dilution is carried out accordingly. The final concentration of DMSO in the assay is set at 0.5%.
# After treatment, media was removed and cells were lysed in 50 μL of 1× AlphaScreen Ultra Lysis Buffer (Perkin Elmer). The AlphaLISA® SureFire® Ultra™ p-ERK 1/2 (Thr202/Tyr2O4) (PerkinElmer) reactions were performed with 5 μL of cell lysate according to the manufacturer's specifications in 384-well proxyplates (Perkin Elmer) followed by overnight incubation of the reactions at room temperature in a humidified chamber. After completion of the reactions, the signals were recorded on an EnVision plate reader (Perkin Elmer) using built in AlphaLISA® settings.
# The effect of each compound dilution on the pERK signal was expressed in % inhibition and calculated as follows. An internal 100% inhibition control ([…] trametinib, cat #HY-10999; MedChem Express; CAS #871700-17-3) was included in each plate and used as a measure of pERK background. First, the value obtained for trametinib was subtracted from each data point. The average of DMSO (vehicle) controls (set as 0% inhibition) was established and used to calculate % inhibition: % inhibition=100*(1-((pERK signalcompound)/(pERK signalDMSO)))
# The ability of each compound to inhibit pERK signal was expressed as an IC50 value obtained by plotting the inhibition values for each data point of a dilution series and fitting the obtained curves using a log(agonist) versus response-variable slope (four parameters) function using GraphPadPrism (V7.0) or Dotmatics Screening Ultra platform.
# When present, paradoxical pERK induction is inferred from the negative % inhibition values observed in the pERK IC50 curves of a compound.
# [1] = HCT116 cells, class symbol before the bracket
Compound,"IC50 (HCT116 cells, class symbol) [nM]",also measured
O=S(=O)(Nc1ccc(F)c(Nc2ncnc3ccc(-n4cc(CO)c5ccccc54)nc23)c1F)c1ccccc1Cl [Ex 88],–,"HCT116 pERK Ymin % (HCT116 cells, Ymin in brackets): −6%; IC50 [1]: 1000 to 10000 nM"
O=S(=O)(Nc1ccc(F)c(Nc2ncnc3ccc(-n4cnc5c(CN6CCC6)cccc54)nc23)c1F)c1ccccc1Cl [Ex 218],–,"HCT116 pERK Ymin % (HCT116 cells, Ymin in brackets): −6%; IC50 [1]: 500 to 1000 nM"
O=S(=O)(Nc1ccc(F)c(Nc2ncnc3ccc(-n4cnc5c(CN6CCOCC6)cccc54)nc23)c1F)c1ccccc1Cl [Ex 220],–,"HCT116 pERK Ymin % (HCT116 cells, Ymin in brackets): −1.7%; IC50 [1]: 500 to 1000 nM"
CCN(C)Cc1cccc2c1ncn2-c1ccc2ncnc(Nc3c(F)ccc(NS(=O)(=O)c4ccccc4Cl)c3F)c2n1 [Ex 221],–,"HCT116 pERK Ymin % (HCT116 cells, Ymin in brackets): −5%; IC50 [1]: 500 to 1000 nM"
O=S(=O)(Nc1ccc(F)c(Nc2ncnc3ccc(-n4cnc5c(CN6CCCCC6)cccc54)nc23)c1F)c1ccccc1Cl [Ex 228],–,"HCT116 pERK Ymin % (HCT116 cells, Ymin in brackets): 2.0%; IC50 [1]: 500 to 1000 nM"
O=S(=O)(Nc1ccc(F)c(Nc2ncnc3ccc(-n4cnc5c(CN6CCNCC6)cccc54)nc23)c1F)c1ccccc1Cl [Ex 230],–,"HCT116 pERK Ymin % (HCT116 cells, Ymin in brackets): −3%; IC50 [1]: 1000 to 10000 nM"
Cc1cc([N+](=O)[O-])ccc1S(=O)(=O)Nc1ccc(F)c(Nc2ncnc3ccc(-n4cnc5c(N)cccc54)nc23)c1F [Ex 368],1000 to 10000,–
CN(CCc1ccccn1)C(=O)c1nn(-c2ccc3ncnc(Nc4c(F)ccc(NS(=O)(=O)c5cccc(Cl)c5Cl)c4F)c3n2)c2ccccc12 [Ex 370],< 500,–
O=S(=O)(Nc1ccc(F)c(Nc2ncnc3ccc(-n4cc(S(=O)(=O)N5CCN(c6ccccn6)CC5)c5ccccc54)nc23)c1F)c1cccc(Cl)c1Cl [Ex 377],500 to 1000,–
O=S(=O)(Nc1ccc(F)c(Nc2ncnc3ccc(-n4cc(S(=O)(=O)N5CCN(CCOCCO)CC5)c5ccccc54)nc23)c1F)c1cccc(Cl)c1Cl [Ex 378],< 500,–
Cc1c(F)cccc1S(=O)(=O)Nc1ccc(F)c(Nc2ncnc3ccc(-n4cnc(CO)c4)nc23)c1F [Ex 379],1000 to 10000,–
O=S(=O)(Nc1ccc(F)c(Nc2ncnc3ccc(-n4cc(S(=O)(=O)N5CCN(C6CCCCC6)CC5)c5ccccc54)nc23)c1F)c1cccc(Cl)c1Cl [Ex 380],1000 to 10000,–
CS(=O)(=O)c1cn(-c2ccc3ncnc(Nc4c(F)ccc(NS(=O)(=O)c5cccc(Cl)c5Cl)c4F)c3n2)c2ccccc12 [Ex 381],< 500,–
CN(C)C1CCN(S(=O)(=O)c2cn(-c3ccc4ncnc(Nc5c(F)ccc(NS(=O)(=O)c6cccc(Cl)c6Cl)c5F)c4n3)c3ccccc23)CC1 [Ex 387],< 500,–
CCN1CCN(S(=O)(=O)c2cn(-c3ccc4ncnc(Nc5c(F)ccc(NS(=O)(=O)c6cccc(Cl)c6Cl)c5F)c4n3)c3ccccc23)CC1 [Ex 388],< 500,–
O=S(=O)(Nc1ccc(F)c(Nc2ncnc3ccc(-n4cc(S(=O)(=O)N5CCN(CCO)CC5)c5ccccc54)nc23)c1F)c1cccc(Cl)c1Cl [Ex 389],< 500,–
Cc1c(F)cccc1S(=O)(=O)Nc1ccc(F)c(Nc2ncnc3ccc(-n4cc(S(=O)(=O)N5CCC(N(C)C)CC5)c5ccccc54)nc23)c1F [Ex 395],< 500,–

Compound,"IC50 (HCT116 cells, class symbol) [nM]",also measured
CCN1CCN(S(=O)(=O)c2cn(-c3ccc4ncnc(Nc5c(F)ccc(NS(=O)(=O)c6cccc(F)c6C)c5F)c4n3)c3ccccc23)CC1 [Ex 396],< 500,–
Cc1c(F)cccc1S(=O)(=O)Nc1ccc(F)c(Nc2ncnc3ccc(-n4cc(S(=O)(=O)N5CCN(CCO)CC5)c5ccccc54)nc23)c1F [Ex 397],< 500,–
CN1CCCN(S(=O)(=O)c2cn(-c3ccc4ncnc(Nc5c(F)ccc(NS(=O)(=O)c6cccc(Cl)c6Cl)c5F)c4n3)c3ccccc23)CC1 [Ex 436],< 500,–
O=S(=O)(CC1CCCO1)c1cn(-c2ccc3ncnc(Nc4c(F)ccc(NS(=O)(=O)c5cccc(Cl)c5Cl)c4F)c3n2)c2ccccc12 (stereo not shown) [Ex 441],500 to 1000,–
O=S(=O)(CC1CCOCC1)c1cn(-c2ccc3ncnc(Nc4c(F)ccc(NS(=O)(=O)c5cccc(Cl)c5Cl)c4F)c3n2)c2ccccc12 [Ex 442],< 500,–
COc1cccc2c1ncn2-c1ccc2ncnc(Nc3c(F)ccc(NS(=O)(=O)c4cccc(Cl)c4Cl)c3F)c2n1 [Ex 449],< 500,–
O=S(=O)(Nc1ccc(F)c(Nc2ncnc3ccc(-n4cc(S(=O)(=O)N5CC6COCC6C5)c5ccccc54)nc23)c1F)c1cccc(Cl)c1Cl (stereo not shown) [Ex 451],< 500,–
CC(C)(O)CCNS(=O)(=O)c1cn(-c2ccc3ncnc(Nc4c(F)ccc(NS(=O)(=O)c5cccc(Cl)c5Cl)c4F)c3n2)c2ccccc12 [Ex 453],< 500,–
O=S(=O)(Nc1ccc(F)c(Nc2ncnc3ccc(-n4cc(S(=O)(=O)N5CC(O)C5)c5ccccc54)nc23)c1F)c1cccc(Cl)c1Cl [Ex 455],< 500,–
O=S(=O)(Nc1ccc(F)c(Nc2ncnc3ccc(-n4cnc5c(CN6CC(F)C6)cccc54)nc23)c1F)c1ccccc1Cl [Example 227],–,"HCT116 pERK Ymin % (HCT116 cells, Ymin in brackets): −1.9%; IC50 [1]: 500 to 1000 nM"
CC(c1cccc2c1ncn2-c1ccc2ncnc(Nc3c(F)ccc(NS(=O)(=O)c4ccccc4Cl)c3F)c2n1)N1CCOCC1 (stereo not shown) [Example 237],–,"HCT116 pERK Ymin % (HCT116 cells, Ymin in brackets): 2.8%; IC50 [1]: 500 to 1000 nM"
Cc1c(Cl)cccc1S(=O)(=O)Nc1cccc(Nc2ncnc3ccc(-n4nc(C(=O)N5CCOCC5)c5ccccc54)nc23)c1F [Example 241],–,"IC50 (HCT116 cells, Table 5): 1000 to 10000 nM; HCT116 pERK Ymin % (lowest value of the curve, HCT116, Table 5): −0.9%"
CCCNc1cccc2c1ncn2-c1ccc2ncnc(Nc3c(F)ccc(NS(=O)(=O)c4cccc(Cl)c4Cl)c3F)c2n1 [Example 242],–,"HCT116 pERK Ymin % (HCT116 cells, Ymin in brackets): −7.4%; IC50 [1]: 1000 to 10000 nM"
Cc1c(F)cccc1S(=O)(=O)Nc1ccc(F)c(Nc2ncnc3ccc(-n4ncc5c4CN(CCO)CC5)nc23)c1F [Example 339],< 500,–
Cc1c(F)cccc1S(=O)(=O)Nc1ccc(F)c(Nc2ncnc3ccc(-n4cc5c(n4)CCCN5CCO)nc23)c1F [Example 340],< 500,–
Cc1c(F)cccc1S(=O)(=O)Nc1ccc(F)c(Nc2ncnc3ccc(-n4cc5c(n4)CCCN5C)nc23)c1F [Example 356],< 500,–

# Continued, in another order:
"IC50 (HCT116 cells, class symbol) [nM]",Compound,also measured
< 500,CC1(O)CCN(S(=O)(=O)c2cn(-c3ccc4ncnc(Nc5c(F)ccc(NS(=O)(=O)c6cccc(Cl)c6Cl)c5F)c4n3)c3ccccc23)CC1 [Ex 458],–
< 500,C[C@@H]1CN(C)C[C@H](C)N1S(=O)(=O)c1cn(-c2ccc3ncnc(Nc4c(F)ccc(NS(=O)(=O)c5cccc(Cl)c5Cl)c4F)c3n2)c2ccccc12 [Ex 459],–
< 500,O=S(=O)(Nc1ccc(F)c(Nc2ncnc3ccc(-n4cnc5c(Cl)cccc54)nc23)c1F)c1cccc(Cl)c1Cl [Ex 462],–
500 to 1000,O=S(=O)(Nc1ccc(F)c(Nc2ncnc3ccc(-n4cnc5c4CCCC5)nc23)c1F)c1cccc(Cl)c1Cl [Ex 463],–
1000 to 10000,CC(=O)c1cn(-c2ccc3ncnc(Nc4c(F)ccc(NS(=O)(=O)c5cccc(Cl)c5Cl)c4F)c3n2)c2ccccc12 [Ex 464],–
1000 to 10000,CCC(=O)c1cn(-c2ccc3ncnc(Nc4c(F)ccc(NS(=O)(=O)c5cccc(Cl)c5Cl)c4F)c3n2)c2ccccc12 [Ex 471],–
1000 to 10000,Cc1c(F)cccc1S(=O)(=O)Nc1ccc(F)c(Nc2ncnc3ccc(-n4cnc5c(C#N)cccc54)nc23)c1F [Example 329],–
< 500,Cc1c(F)cccc1S(=O)(=O)Nc1ccc(F)c(Nc2ncnc3ccc(-n4ccc(C(=O)N(C)Cc5ccncc5)n4)nc23)c1F [Example 334],–
< 500,Cc1c(F)cccc1S(=O)(=O)Nc1ccc(F)c(Nc2ncnc3ccc(-n4cnc(CCC#N)c4)nc23)c1F [Example 347],–
< 500,Nc1nccc2c1ncn2-c1ccc2ncnc(Nc3c(F)ccc(NS(=O)(=O)c4cccc(Cl)c4Cl)c3F)c2n1 [Example 348],–
< 500,Cc1c(F)cccc1S(=O)(=O)Nc1ccc(F)c(Nc2ncnc3ccc(-n4cnc5c(NCCO)cccc54)nc23)c1F [Example 350],–
< 500,Cc1c(F)cccc1S(=O)(=O)Nc1ccc(F)c(Nc2ncnc3ccc(-n4cnc5c(N(CCO)CCO)cccc54)nc23)c1F [Example 351],–
